Assay results as given in the NIST ThermoML archive (doi:10.1016/j.jct.2005.04.009).
Numbers after ± are expanded uncertainties.

Legend:
[1] = 101.33 kPa, Liquid, Alternating current cell with electrodes
[2] = wn = mass fraction of the nth substance listed; conditions: 100 kPa, Liquid, Alternating current cell with electrodes

Structure (SMILES) | electrical conductivity ([1]; 288.15 K) [S/m] | electrical conductivity ([1]; 293.15 K) [S/m] | electrical conductivity ([1]; 298.15 K) [S/m] | electrical conductivity ([1]; 308.15 K) [S/m] | electrical conductivity ([1]; 323.15 K) [S/m] | electrical conductivity ([2]; 288.15 K, w2 = 1e-05) [S/m] | electrical conductivity ([2]; 288.15 K, w2 = 8e-05) [S/m] | electrical conductivity ([2]; 288.15 K, w2 = 0.00102) [S/m] | electrical conductivity ([2]; 288.15 K, w2 = 0.00885) [S/m] | electrical conductivity ([2]; 293.15 K, w2 = 1e-05) [S/m] | electrical conductivity ([2]; 293.15 K, w2 = 8e-05) [S/m] | electrical conductivity ([2]; 293.15 K, w2 = 0.00102) [S/m] | electrical conductivity ([2]; 293.15 K, w2 = 0.00885) [S/m] | electrical conductivity ([2]; 298.15 K, w2 = 1e-05) [S/m] | electrical conductivity ([2]; 298.15 K, w2 = 8e-05) [S/m] | electrical conductivity ([2]; 298.15 K, w2 = 0.00102) [S/m] | electrical conductivity ([2]; 298.15 K, w2 = 0.00885) [S/m]
CCCCCC[n+]1ccn(C)c1.O=S(=O)([N-]S(=O)(=O)C(F)(F)F)C(F)(F)F | 0.135 ± 0.02 | 0.173 ± 0.02 | 0.218 ± 0.02 | 0.327 ± 0.02 | 0.546 ± 0.02 |  |  |  |  |  |  |  |  |  |  |  | 
CCCC[n+]1ccn(C)c1.O=S(=O)([N-]S(=O)(=O)C(F)(F)F)C(F)(F)F | 0.265 ± 0.02 | 0.331 ± 0.02 | 0.406 ± 0.02 | 0.585 ± 0.02 | 0.924 ± 0.02 |  |  |  |  |  |  |  |  |  |  |  | 
CCn1cc[n+](C)c1.O=S(=O)([N-]S(=O)(=O)C(F)(F)F)C(F)(F)F | 0.644 ± 0.02 | 0.773 ± 0.02 | 0.912 ± 0.02 | 1.23 ± 0.02 | 1.79 ± 0.02 |  |  |  |  |  |  |  |  |  |  |  | 
CCCC[n+]1ccn(C)c1.O=S(=O)([N-]S(=O)(=O)C(F)(F)F)C(F)(F)F + O |  |  |  |  |  | 0.265 ± 0.02 | 0.266 ± 0.02 | 0.277 ± 0.02 | 0.365 ± 0.021 | 0.331 ± 0.02 | 0.332 ± 0.02 | 0.345 ± 0.02 | 0.449 ± 0.021 | 0.406 ± 0.02 | 0.408 ± 0.02 | 0.422 ± 0.02 | 0.542 ± 0.022
CCCCn1cc[n+](C)c1.F[P-](F)(F)(F)(F)F [1-butyl-3-methylimidazolium hexafluorophosphate] | 0.079 ± 0.02 | 0.109 ± 0.02 | 0.146 ± 0.02 | 0.247 ± 0.02 | 0.477 ± 0.02 |  |  |  |  |  |  |  |  |  |  |  | 
